Data as given in BigSolDB 2.1.

CCCCCCCCCCCCCCCCOc1nc2ccc(C)cc2c(=O)o1
solubility (mole fraction)
Conditions	278.15 K	283.15 K	288.15 K	293.15 K	298.15 K	303.15 K	308.15 K	313.15 K	318.15 K	323.15 K
in acetone	0.0814	0.0965	0.114	0.133	0.157	0.18	0.208	0.245	0.284	0.327
in acetonitrile	0.0619	0.0759	0.089	0.106	0.123	0.144	0.167	0.191	0.222	0.259
in isopropanol	0.0702	0.0829	0.0979	0.116	0.137	0.158	0.181	0.207	0.241	0.28
